Reference: patent US20230331690A1, “THC DERIVATIVES, ORAL DOSAGE FORMS COMPRISING SAME, USES THEREOF FOR TREATING DISEASES AND DISORDERS AND SYNTHESIS THEREOF” (BAR-ILAN UNIVERSITY, priority 2020, published 2023)
Several values for one entry are separate records, joined by “and”; a condition that tells them apart may be missing. Identical values can stand only once. Like-named read-outs stand apart in the source and are kept apart here.

Experiments:
mice = test: Hot plate assay, withdrawal reflex latency (WRL); type: in vivo; settings: for Hot plate Time: per animal
[1] = Pharmacokinetics, liver samples (Example 17); type: in vivo, mice; settings: for concentration at 24 h / concentration at 5 h: mouse, liver; for concentration at 24 h: ip; for concentration at 5 h: po
[2] = Body temperature by rectal thermometer (hypothermia)
[3] = Persistence over time, liver samples postmortem (Example 18); type: in vivo, mice; settings: mouse, liver, oral, read-out: Average results for 3 mice (Table 13, liver); for concentration at 6 h: died at 6 h; for concentration at 24 h: died at 24 h, number in brackets = mice with a value
Experimental: (§1) Blood samples from each mouse were collected at each time point for the pharmacokinetics tests. For 6 h after administrating of all tested drugs, and after testing their WRL on the hot plate, half the mice (n=3) of each group were sacrificed, and the liver and brain of each animal were taken for pharmacokinetics tests. From the remaining mice, blood samples were acquired at 12 h after administration for pharmacokinetics tests. At 24 h after drug administration, and after checking the WRL again, second half of each group of mice were sacrificed, and the liver and brain of each animal were taken for pharmacokinetics tests.
(§2) All the results of the brain and liver samples, which were taken postmortem 6 h or 24 h after administration (n=3) are summarized in Tables 12-13.

[4] = Persistence over time, blood samples (Example 18); type: in vivo, mice
Experimental: as §1

[5] = Pharmacokinetics, blood samples (Example 17); settings: for concentration at 0.5 h: mouse, blood, ip, Component in the blood, label = analyte
Experimental: The pharmacokinetics of 9-CD3-(8-D2)-THC compared to natural THC was evaluated using both intraperitoneal i.p. injection and an oral gavage administration for each material. The mice were divided into four groups containing 6 mice (24 mice total). For each group of mice, a blood sample was withdrawn at baseline (t=0), and half-hour intervals (t=0.5, 2 and 5 h) after administration of the drug. Three mice, half of each group, were euthanized with CO2 after 5 h and their organs (brain and liver) were collected. From the second half of each group, another blood sample was withdrawn 24 h after administration, and then these animals were euthanized and the brain and liver were collected for analysis.

[6] = Persistence over time, brain samples postmortem (Example 18); type: in vivo, mice
Experimental: as §1, §2

[7] = 8 mg/Kg oral, t = 6 h, listed as THC-d5

## [2H]C([2H])([2H])C1=C[C@H]2c3c(O)cc(CCCCC)cc3OC(C)(C)[C@@H]2CC1([2H])[2H] [9-CD3-(8-D2)-THC]
mice; 2 mg/Kg oral, t = 0.5 h
  Hot plate Avg. 6 mice: 9.52 s
mice; 2 mg/Kg oral, t = 0.5 h, listed as THC-d5
  Hot plate Time: 9.4 s and 9.3 s and 8.9 s and 10.9 s and 12.0 s and 6.6 s
mice; 2 mg/Kg oral, t = 3 h
  Hot plate Avg. 6 mice: 10.97 s
mice; 2 mg/Kg oral, t = 3 h, listed as THC-d5
  Hot plate Time: 7.2 s and 12.1 s and 8.5 s and 19.3 s and 13.1 s and 5.6 s
mice; 2 mg/Kg oral, t = 6 h
  Hot plate Avg. 6 mice: 10.07 s
mice; 2 mg/Kg oral, t = 6 h, listed as THC-d5
  Hot plate Time: 9.3 s and 14.5 s and 4.5 s and 15.8 s and 8.9 s and 7.4 s
mice; 2 mg/Kg oral, t = 24 h
  Hot plate Avg. 3 mice: 8.3 s
mice; 2 mg/Kg oral, t = 24 h, listed as THC-d5
  Hot plate Time: 7.9 s and 9.5 s and 7.5 s
mice; 2 mg/kg, 0.5 h
  increase in the WRL compared to baseline: 3%
mice; 2 mg/kg, 3 h
  change in average WRL compared to baseline: +19%
mice; 2 mg/kg, 6 h
  change in average WRL compared to baseline: +9%
mice; 4 mg/Kg oral, t = 0.5 h
  Hot plate Avg. 6 mice: 14.03 s
mice; 4 mg/Kg oral, t = 0.5 h, listed as THC-d5
  Hot plate Time: 19.2 s and 10.3 s and 13.0 s and 9.5 s and 15.8 s and 16.4 s
mice; 4 mg/Kg oral, t = 3 h
  Hot plate Avg. 6 mice: 13.77 s
mice; 4 mg/Kg oral, t = 3 h, listed as THC-d5
  Hot plate Time: 17.5 s and 11.8 s and 12.1 s and 9.2 s and 12.5 s and 19.5 s
mice; 4 mg/Kg oral, t = 6 h
  Hot plate Avg. 6 mice: 15.38 s
mice; 4 mg/Kg oral, t = 6 h, listed as THC-d5
  Hot plate Time: 8.7 s and 19.9 s and 12.1 s and 8.3 s and 22.5 s and 20.8 s
mice; 4 mg/Kg oral, t = 24 h
  Hot plate Avg. 3 mice: 14.27 s
mice; 4 mg/Kg oral, t = 24 h, listed as THC-d5
  Hot plate Time: 5.2 s and 21.5 s and 16.1 s
mice; 4 mg/kg, 0.5 h
  increase in the WRL compared to baseline: 68%
mice; 4 mg/kg, 3 h
  change in average WRL compared to baseline: +65%
mice; 4 mg/kg, 6 h
  change in average WRL compared to baseline: +85%
mice; 8 mg/Kg oral, t = 0.5 h
  Hot plate Avg. 6 mice: 15.42 s
mice; 8 mg/Kg oral, t = 0.5 h, cut-off 30 s, listed as THC-d5
  Hot plate Time: 19.9 s and 24.5 s and 11.1 s and 17.5 s and 10.1 s and 9.4 s
mice; 8 mg/Kg oral, t = 3 h
  Hot plate Avg. 6 mice: 22.1 s
mice; 8 mg/Kg oral, t = 3 h, cut-off 30 s, listed as THC-d5
  Hot plate Time: 30.0 sec. (3×) and 6.0 sec. and 26.2 sec. and 10.4 sec.
mice; 8 mg/Kg oral, t = 3 h, listed as THC-d5
  Hot plate Avg. 6 mice: 22.10 s
mice; 8 mg/Kg oral, t = 6 h
  Hot plate Avg. 6 mice: 8.4 s
mice; [7]
  Hot plate Time: 6.4 s and 9.8 s and 11.5 s and 7.1 s and 13.4 s and 2.3 s
  Hot plate Avg. 6 mice: 8.42 s
mice; 8 mg/Kg oral, t = 24 h
  Hot plate Avg. 3 mice: 20.8 s
mice; 8 mg/Kg oral, t = 24 h, animal 20
  animal outcome printed in the hot plate Time column: Died
mice; 8 mg/Kg oral, t = 24 h, cut-off 30 s, listed as THC-d5
  Hot plate Time: 30.0 s and 11.2 s
mice; 8 mg/Kg oral, t = 24 h, listed as THC-d5
  Hot plate Avg. 3 mice: 20.6 s
mice; 8 mg/kg oral, up to 24 h after administration
  analgesic effect compared to natural THC and morphine: stronger and longer lasting analgesic effect
mice; 8 mg/kg, 0.5 h
  average increase in WRL compared to baseline (t=0): 67.6%
mice; 8 mg/kg, 3 h
  change in average WRL compared to t=0 at baseline: 140%
[1]; 5 h after oral gavage administration
  average liver concentration, times more than THC: 1.59 times
[1]; 24 h after i.p. administration
  average liver concentration, times more than THC: 1.40 times
[1]; 24 h after i.p. administration, n=3, read-out: average liver concentration
  concentration at 24 h: 10.7 ng/g
[1]; 24 h after i.p. injection of THC or THC-d5, label = analyte, n=3, read-out: Component in the liver, Average
  concentration at 24 h: 10.7 ng/mL
[1]; 24 h after i.p. injection of THC or THC-d5, label = analyte, read-out: Component in the liver, mouse 1
  concentration at 24 h: 12.4 ng/mL
[1]; 24 h after i.p. injection of THC or THC-d5, label = analyte, read-out: Component in the liver, mouse 2
  concentration at 24 h: 15 ng/mL
[1]; 24 h after i.p. injection of THC or THC-d5, label = analyte, read-out: Component in the liver, mouse 3
  concentration at 24 h: 4.64 ng/mL
[1]; 5 h after oral gavage administration of THC or THC-d5, label = analyte, n=3, read-out: Component in the liver, Average
  concentration at 5 h: 5.99 ng/mL
[1]; 5 h after oral gavage administration of THC or THC-d5, label = analyte, read-out: Component in the liver, mouse 1
  concentration at 5 h: 5.57 ng/mL
[1]; 5 h after oral gavage administration of THC or THC-d5, label = analyte, read-out: Component in the liver, mouse 2
  concentration at 5 h: 6.28 ng/mL
[1]; 5 h after oral gavage administration of THC or THC-d5, label = analyte, read-out: Component in the liver, mouse 3
  concentration at 5 h: 6.13 ng/mL
[1]; 5 h after oral gavage administration, n=3, read-out: average liver concentration
  concentration at 5 h: 5.99 ng/g
[2]; high concentration of 8 mg/kg oral
  time of strongest effect on body temperature after drug administration: 3 h
[2]; medium concentration of 4 mg/kg oral
  hypothermia effect (body temperature): very clear hypothermia effect
[2]; mice, avg. of 6 mice, 8 mg/kg (groups C+D), t = 3 h after administration
  Body temperature, Avg. change compared to t = 0, at t = 3 h: −2.6 °C
[2]; mice, group D, 8 mg/kg, single animal, t = 24 h
  Animal status in the Temp. column at t = 24 h: Died
[3]; 2 mg/kg administered
  concentration at 6 h: 3.31 ng/g
  concentration at 24 h: 0.75 ng/g
[3]; 4 mg/kg administered
  concentration at 6 h: 16.1 ng/g
[3]; 8 mg/kg administered
  concentration at 6 h: 57.8 ng/g
  concentration at 24 h: 1.64 ng/g
[4]; 4 mg/kg administration, Time 3 h, label = analyte
  Average results, blood samples: 1.44 (4/4) ng/mL
[4]; 8 mg/kg administration, Time 12 h (3 mice), label = analyte
  Average results, blood samples: 0.15 (1/1) ng/mL
[4]; conclusion from mouse blood, brain and liver samples
  metabolic stability compared to THC: better metabolic stability than THC
[4]; mouse, blood, oral, 4 mg/kg administration of THC or THC-d5, Time 0.5 h, label = analyte
  concentration at 0.5 h: 10.4 ng/mL
[4]; mouse, blood, oral, 8 mg/kg administration of THC or THC-d5, Time 0.5 h, label = analyte
  concentration at 0.5 h: 22.5 ng/mL
[4]; mouse, blood, oral, 8 mg/kg administration, Time 3 h, label = analyte
  concentration at 3 h: 7.27 ng/mL
[4]; mouse, blood, oral, 8 mg/kg administration, Time 6 h, label = analyte
  concentration at 6 h: 1.81 ng/mL
[5]; 0.5 h after i.p. administration
  average blood concentration, times higher than THC: 1.87 times
[5]; Average, 0.5 h after i.p. injection of THC or THC-d5, n=6 (THC-d5 n=5)
  concentration at 0.5 h: 110 ng/mL
[5]; mouse 1, 0.5 h after i.p. injection of THC or THC-d5
  concentration at 0.5 h: 183 ng/mL
[5]; mouse 2, 0.5 h after i.p. injection of THC or THC-d5
  concentration at 0.5 h: 93.8 ng/mL
[5]; mouse 4, 0.5 h after i.p. injection of THC or THC-d5
  concentration at 0.5 h: 141 ng/mL
[5]; mouse 5, 0.5 h after i.p. injection of THC or THC-d5
  concentration at 0.5 h: 74.1 ng/mL
[5]; mouse 6, 0.5 h after i.p. injection of THC or THC-d5
  concentration at 0.5 h: 58.9 ng/mL
[6]; 24 h after administration, highest concentration of 8 mg/kg
  presence in the brain: evidence for the synthetic material in the brain
[6]; mouse, brain, oral, 8 mg/kg administered, died at 6 h, number in brackets = mice with a value, read-out: Average results for 3 mice - brain samples
  concentration at 6 h: 48 ng/g
